Values quoted from earlier work, collected in patent US20250231185A1, “Coronavirus T Cell Epitopes, Megapools and Uses Thereof” (La Jolla Institute for Immunology, priority 2021, published 2025).
Read-outs that look alike come from different tables or passages of the source.

System: CD8+ T cells
Settings: cited from earlier work
[1] = CD8R (D) megapool epitopes, dominant = recognized by 3 or more donors/different studies
[2] = T cell subset (CD4 or CD8) recognizing the SARS-CoV-2-derived epitope
[3] = CD8RE megapool peptides (non-spike SARS-CoV-2 antigens), dominant epitope Yes/No
[4] = T cell type (CD4 or CD8) recognizing the SARS-CoV-2 epitope
[5] = SARS-CoV-2 Ag S, T cell type recognizing the epitope
[6] = SARS-CoV-2-derived CD8 epitopes, dominant = recognized by 3 or more donors/different studies

In the case of 1670 (FLFLTWICL) [compound 1670], the Dominant [1] is listed as “Yes (more dominant epitopes are defined by being recognized by 3 or more donors/different studies)”.

For 507 (YGANKDGIIW) [compound 507], the Restriction [2] is listed as “CD8”.

In the case of 3019 (SAFAMMFVK) [compound 3019], the Dominant [3] is given as “Yes (more dominant epitopes are defined by being recognized by 3 or more donors/different studies)”.

For 923 (VVYRAFDIY) [compound 923], the Restriction [4] is listed as “CD8”.

For 976 (SAKNRARTV) [compound 976], the Restriction [4] is given as “CD8”.

For 912 (SDGTGTIY) [compound 912], the Restriction [4] is listed as “CD8”.

In the case of 3001 (SAPPAQYEL) [compound 3001], the Dominant [3] is given as “Yes (more dominant epitopes are defined by being recognized by 3 or more donors/different studies)”.

In the case of 958 (AAISDYDYYR) [compound 958], the Restriction [4] is given as “CD8”.

For 1460 (QYIKWPWYIW) [compound 1460], the Restriction [5] is given as “CD8”.

In the case of 926 (KVAGFAKFLK) [compound 926], the Restriction [4] is listed as “CD8”.

For 1334 (YQDVNCTEV) [compound 1334], the Restriction [5] is listed as “CD8”.

In the case of 1435 (TYVPAQEKNFT) [compound 1435], the Restriction [5] is given as “CD8”.

For 660 (HTTDPSFLGRY) [compound 660], the Dominant [6] is given as “Yes (more dominant epitopes are defined by being recognized by 3 or more donors/different studies)” and the Restriction [2] is given as “CD8”.

For 576 (TVYEKLKPV) [compound 576], the Restriction [2] is listed as “CD8”.

For 1798 (YTELEPPCRF) [compound 1798], the Dominant [1] is given as “Yes (more dominant epitopes are defined by being recognized by 3 or more donors/different studies)”.

In the case of 543 (EVTPSGTWLTY) [compound 543], the Restriction [2] is listed as “CD8”.

For 636 (AIVSTIQRKYK) [compound 636], the Restriction [2] is listed as “CD8”.

For 908 (AWPLIVTAL) [compound 908], the Restriction [4] is given as “CD8”.

In the case of 511 (GTRNPANNA) [compound 511], the Restriction [2] is given as “CD8”.

For 1080 (FIPMDSTVKNY) [compound 1080], the Restriction [4] is given as “CD8”.

For 616 (NLYDKLVSSFL) [compound 616], the Restriction [2] is listed as “CD8”.

For 572 (VRSIFSRTL) [compound 572], the Restriction [2] is listed as “CD8”.

For 1741 (VLWAHGFEL) [compound 1741], the Dominant [1] is listed as “Yes (more dominant epitopes are defined by being recognized by 3 or more donors/different studies)”.

In the case of 982 (MPNMLRIMASL) [compound 982], the Restriction [4] is given as “CD8”.

For 1739 (IVDTVSALV) [compound 1739], the Dominant [1] is listed as “Yes (more dominant epitopes are defined by being recognized by 3 or more donors/different studies)”.

For 623 (LVSDIDITF) [compound 623], the Restriction [2] is listed as “CD8”.

In the case of 935 (VENPDILRVY) [compound 935], the Restriction [4] is given as “CD8”.

In the case of 1675 (SMWSFNPET) [compound 1675], the Dominant [1] is given as “Yes (more dominant epitopes are defined by being recognized by 3 or more donors/different studies)”.

For 1791 (NTCDGTTFTY) [compound 1791], the Dominant [1] is listed as “Yes (more dominant epitopes are defined by being recognized by 3 or more donors/different studies)”.

For 3047 (RARSVSPKL) [compound 3047], the Dominant [3] is listed as “Yes (more dominant epitopes are defined by being recognized by 3 or more donors/different studies)”.

For 2925 (GTGPEAGLPY) [compound 2925], the Dominant [3] is given as “Yes (more dominant epitopes are defined by being recognized by 3 or more donors/different studies)”.

In the case of 1402 (ALNTLVKQL) [compound 1402], the Restriction [5] is listed as “CD8”.

In the case of 2914 (ATSRTLSYYK) [compound 2914], the Dominant [3] is given as “Yes (more dominant epitopes are defined by being recognized by 3 or more donors/different studies)”.

For 2948 (DLKGKYVQI) [compound 2948], the Dominant [3] is listed as “Yes (more dominant epitopes are defined by being recognized by 3 or more donors/different studies)”.

In the case of 1679 (ATSRTLSYYK) [compound 1679], the Dominant [1] is listed as “Yes (more dominant epitopes are defined by being recognized by 3 or more donors/different studies)”.

For 1307 (KSNLKPFER) [compound 1307], the Restriction [5] is given as “CD8”.

In the case of 1054 (PFMIDVQQW) [compound 1054], the Restriction [4] is listed as “CD8”.

In the case of 2996 (FGDDTVIEV) [compound 2996], the Dominant [3] is listed as “Yes (more dominant epitopes are defined by being recognized by 3 or more donors/different studies)”.

For 1780 (FLNGSCGSV) [compound 1780], the Dominant [1] is given as “Yes (more dominant epitopes are defined by being recognized by 3 or more donors/different studies)”.

For 661 (TTDPSFLGRY) [compound 661], the Dominant [6] is given as “Yes (more dominant epitopes are defined by being recognized by 3 or more donors/different studies)” and the Restriction [2] is given as “CD8”.

For 1060 (KIEELFYSY) [compound 1060], the Restriction [4] is listed as “CD8”.

For 1799 (VTDTPKGPK) [compound 1799], the Dominant [1] is given as “Yes (more dominant epitopes are defined by being recognized by 3 or more donors/different studies)”.

In the case of 547 (ILLNKHIDA) [compound 547], the Dominant [6] is given as “Yes (more dominant epitopes are defined by being recognized by 3 or more donors/different studies)” and the Restriction [2] is given as “CD8”.

For 985 (LRIMASLVL) [compound 985], the Restriction [4] is listed as “CD8”.

In the case of 606 (YLKLTDNVY) [compound 606], the Restriction [2] is given as “CD8”.

In the case of 3035 (MDLFMRIFTI) [compound 3035], the Dominant [3] is given as “Yes (more dominant epitopes are defined by being recognized by 3 or more donors/different studies)”.

In the case of 1814 (VFITLCFTLK) [compound 1814], the Dominant [1] is given as “Yes (more dominant epitopes are defined by being recognized by 3 or more donors/different studies)”.

For 676 (VRETMSYLF) [compound 676], the Restriction [2] is given as “CD8”.

In the case of 1772 (STFNVPMEK) [compound 1772], the Dominant [1] is given as “Yes (more dominant epitopes are defined by being recognized by 3 or more donors/different studies)”.

In the case of 1701 (AQFAPSASAF) [compound 1701], the Dominant [1] is listed as “Yes (more dominant epitopes are defined by being recognized by 3 or more donors/different studies)”.

For 625 (LTAVVIPTK) [compound 625], the Restriction [2] is listed as “CD8”.

In the case of 2974 (IVDTVSALV) [compound 2974], the Dominant [3] is listed as “Yes (more dominant epitopes are defined by being recognized by 3 or more donors/different studies)”.

In the case of 999 (LYYQNNVFM) [compound 999], the Restriction [4] is given as “CD8”.

In the case of 3040 (YLYALVYFL) [compound 3040], the Dominant [3] is given as “Yes (more dominant epitopes are defined by being recognized by 3 or more donors/different studies)”.

In the case of 2981 (SYATHSDKF) [compound 2981], the Dominant [3] is listed as “Yes (more dominant epitopes are defined by being recognized by 3 or more donors/different studies)”.

For 2932 (QQQQGQTVTK) [compound 2932], the Dominant [3] is listed as “Yes (more dominant epitopes are defined by being recognized by 3 or more donors/different studies)”.

In the case of 1017 (AMYTPHTVL) [compound 1017], the Restriction [4] is listed as “CD8”.

For 579 (KLVNKFLAL) [compound 579], the Dominant [6] is listed as “Yes (more dominant epitopes are defined by being recognized by 3 or more donors/different studies)” and the Restriction [2] is listed as “CD8”.

For 1448 (DSFKEELDKY) [compound 1448], the Restriction [5] is listed as “CD8”.

In the case of 2939 (MEVTPSGTW) [compound 2939], the Dominant [3] is given as “Yes (more dominant epitopes are defined by being recognized by 3 or more donors/different studies)”.

In the case of 2971 (KLNVGDYFV) [compound 2971], the Dominant [3] is given as “Yes (more dominant epitopes are defined by being recognized by 3 or more donors/different studies)”.

For 666 (MSALNHTKKW) [compound 666], the Restriction [2] is given as “CD8”.

In the case of 1343 (AEHVNNSY) [compound 1343], the Restriction [5] is listed as “CD8”.
